The values that follow are results of earlier work, collected in PubChem BioAssay AID1259409 (Chemical Carcinogenesis Research Information System (CCRIS), 2018).

This data set has as its system rodent chemically induced tumor inhibition, incidence and multiplicity. The data set can be described thus: CCRIS tumor inhibitor studies. Conditions: Promoter: NONE USED.

Molecules are shown by their SMILES. Several values for one entry are separate records, joined by “and”; a condition that tells them apart may be missing. Identical values can stand only once.

Take `CCN(CC)C(=S)SSC(=S)N(CC)CC`: the “tumour outcome (control, treated, inhibition, significance)” value is 100%, 58%, 42%, not calculated (Carcinogen: 1,2-DIMETHYLHYDRAZINE, 540-73-8, Dose [Inhibitor]: 0, 500 MG/KG BW IN CORN OIL 5 D/WK FOR 20 WK BEGINNING 2 HR POST FIRST CARCINOGEN DOSE (STUDY DURATION: 18 MO), Route [Inhibitor]: GAVAGE, Species: RAT, Strain/Sex: WISTAR/MALE, Target Tissue: Type of Lesion: INTESTINE: TUMOR, Dose [Carcinogen]: 20 MG/KG BW 1/WK FOR 20 WK); 52%, 4%, 92%, not calculated (Carcinogen: 1,2-DIMETHYLHYDRAZINE, 540-73-8, Dose [Inhibitor]: 0, 500 MG/KG BW IN CORN OIL 5 D/WK FOR 20 WK BEGINNING 2 HR POST FIRST CARCINOGEN DOSE (STUDY DURATION: 18 MO), Route [Inhibitor]: GAVAGE, Species: RAT, Strain/Sex: WISTAR/MALE, Target Tissue: Type of Lesion: ZYMBAL GLAND: TUMOR, Dose [Carcinogen]: 20 MG/KG BW 1/WK FOR 20 WK); 100%, 0%, 100%, not calculated (Carcinogen: 1,2-DIMETHYLHYDRAZINE, 540-73-8, Dose [Inhibitor]: 0, 500 MG/KG BW IN CORN OIL 5 D/WK FOR 20 WK BEGINNING 15 D PRIOR TO CARCINOGEN TREATMENT (STUDY DURATION: 18 MO), Route [Inhibitor]: GAVAGE, Species: RAT, Strain/Sex: WISTAR/MALE, Target Tissue: Type of Lesion: INTESTINE: TUMOR, Dose [Carcinogen]: 20 MG/KG BW 1/WK FOR 20 WK); 68%, 0%, 100%, not calculated (Carcinogen: 1,2-DIMETHYLHYDRAZINE, 540-73-8, Dose [Inhibitor]: 0, 500 MG/KG BW IN CORN OIL 5 D/WK FOR 20 WK BEGINNING 15 D PRIOR TO CARCINOGEN TREATMENT (STUDY DURATION: 18 MO), Route [Inhibitor]: GAVAGE, Species: RAT, Strain/Sex: WISTAR/MALE, Target Tissue: Type of Lesion: ZYMBAL GLAND: TUMOR, Dose [Carcinogen]: 20 MG/KG BW 1/WK FOR 20 WK); 14/14 (100%), 0/20 (0%), 100%, not calculated (Carcinogen: 1,2-DIMETHYLHYDRAZINE, 540-73-8, Dose [Inhibitor]: 5 MG/G IN DIET FOR 17 WK BEGINNING 8 D PRIOR TO CARCINOGEN (STUDY DURATION: 36 WK), Route [Inhibitor]: ORAL, Species: MOUSE, Strain/Sex: C-F1/FEMALE, Target Tissue: Type of Lesion: LARGE INTESTINE: TUMOR, Dose [Carcinogen]: 0.7 MG IN 0.2 ML EDTA SOLUTION 1/WK FOR 16 WK); 61%, 22%, 64%, p<0.05 and 79%, 8%, 90%, p<0.001 (Carcinogen: 7,12-DIMETHYLBENZ[A]ANTHRACENE, 57-97-6, Dose [Inhibitor]: 0.03 NMOL/G DIET DAILY FOR 17 WK STARTING 1 WK PRIOR TO CARCINOGEN TREATMENT AND CONTINUING THROUGH THE END OF THE STUDY, Route [Inhibitor]: ORAL, Species: RAT, Strain/Sex: SPRAGUE-DAWLEY/FEMALE, Target Tissue: Type of Lesion: MAMMARY GLAND: TUMOR, Dose [Carcinogen]: 12 MG IN 1 ML OLIVE OIL ONCE). The “tumour outcome (control, treated, inhibition, significance)” value reads like this: (Carcinogen: 7,12-DIMETHYLBENZ[A]ANTHRACENE, 57-97-6, Dose [Inhibitor]: 100 MG IN 1 ML CARBOWAX 400 SOLUTION ONCE 24 HR BEFORE CARCINOGEN TREATMENT FOLLOWED BY 16 WK OBSERVATION PERIOD (STUDY, Route [Inhibitor]: GAVAGE, Species: RAT, Strain/Sex: SPRAGUE-DAWLEY/FEMALE, Target Tissue: Type of Lesion: MAMMARY GLAND: TUMOR, Dose [Carcinogen]: 12 MG IN 1 ML OLIVE OIL ONCE) 59%, 11%, 81%, p<0.01; (Carcinogen: BENZO[A]PYENE, 50-32-8, Dose [Inhibitor]: 0.03 MMOL/G DIET DAILY FOR 6 WK CONCURRENT WITH CARCINOGEN TREATMENT FOLLOWED BY 14 WK ON STANDARD DIET (STUDY DURATION:, Route [Inhibitor]: ORAL, Species: MOUSE, Strain/Sex: ICR/FEMALE, Target Tissue: Type of Lesion: FORESTOMACH: NEOPLASM, Dose [Carcinogen]: 0.3 MG/G IN DIET DAILY FOR 6 WK) 40%, 0%, 100%, not calculated; (Carcinogen: BENZO[A]PYENE, 50-32-8, Dose [Inhibitor]: 0.03 MMOL/G DIET DAILY FOR 25 D STARTING 7 D PRIOR TO FIRST CARCINOGEN DOSE AND THEN PLACED ON STANDARD DIET THROUGH THE, Route [Inhibitor]: ORAL, Species: MOUSE, Strain/Sex: STRAIN-A/FEMALE, Target Tissue: Type of Lesion: LUNG: ADENOMA, Dose [Carcinogen]: 3 MG IN 0.5 ML SESAME OIL ADMINISTERED 7 AND 21 D AFTER START OF AGENT) 12/12 (100%), 12/12 (100%), 0%, not significant; (Carcinogen: BRACKEN FERN, Dose [Inhibitor]: 5 MG/G DIET, DAILY FOR 12 MO SIMULTANEOUS WITH CARCINOGEN (STUDY DURATION: 12 MO), Route [Inhibitor]: ORAL, Species: RAT, Strain/Sex: ALBINO/?, Target Tissue: Type of Lesion: INTESTINE: TUMOR, Dose [Carcinogen]: 0.33 G IN DIET DAILY FOR 12 MO) 30/30 (100%), 12/16 (75%), 25%, p<0.01; (Carcinogen: BRACKEN FERN, Dose [Inhibitor]: 5 MG/G DIET, DAILY FOR 12 MO SIMULTANEOUS WITH CARCINOGEN (STUDY DURATION: 12 MO), Route [Inhibitor]: ORAL, Species: RAT, Strain/Sex: ALBINO/?, Target Tissue: Type of Lesion: URINARY BLADDER: TUMOR, Dose [Carcinogen]: 0.33 G IN DIET, DAILY FOR 12 MO) 22/30 (73%), 10/16 (62%), 15%, not significant; (Carcinogen: TRANS-5-AMINO-3-[2-(5-NITRO-2-FURYL)VINYL]-1,2,4-OXADIAZOLE;SQL8506, 28754-68-9, Carcinogen: TRANS-5-AMINO-3-[2-(5-NITRO-2-FURYL)VINYL]-1,2,4-OXADIAZOLE;SQL8506, 28754-68-9, Dose [Inhibitor]: 1% IN DIET DAILY FOR 11 D BEGINNING 3 D BEFORE, DURING AND 3 D AFTER EACH OF 3 CARCINOGEN TREATMENTS (STUDY DURATION: LI, Route [Inhibitor]: ORAL, Species: MOUSE, Strain/Sex: CD-1/FEMALE, Target Tissue: Type of Lesion: HEMATOPOIETIC SYSTEM: MYELOID LEUKEMIA, Dose [Carcinogen]: 1 G/KG 2/D FOR 5 D EVERY 4 WK FOR 3 COURSES OF TREATMENT) 7/137 (5%), 0/34 (0%), 100%, not calculated. Also, the “tumour outcome (control, treated, inhibition, significance)” value runs as follows: (Carcinogen: TRANS-5-AMINO-3-[2-(5-NITRO-2-FURYL)VINYL]-1,2,4-OXADIAZOLE;SQL8506, 28754-68-9, Carcinogen: TRANS-5-AMINO-3-[2-(5-NITRO-2-FURYL)VINYL]-1,2,4-OXADIAZOLE;SQL8506, 28754-68-9, Dose [Inhibitor]: 1% IN DIET DAILY FOR 11 D BEGINNING 3 D BEFORE, DURING AND 3 D AFTER EACH OF 3 CARCINOGEN TREATMENTS (STUDY DURATION: LI, Route [Inhibitor]: ORAL, Species: MOUSE, Strain/Sex: CD-1/FEMALE, Target Tissue: Type of Lesion: LYMPHOID TISSUE: NONTHYMIC LYMPHOMA, Dose [Carcinogen]: 1 G/KG 2/D FOR 5 D EVERY 4 WK FOR 3 COURSES OF TREATMENT) 8/137 (6%), 0/34 (0%), 100%, not calculated; (Carcinogen: TRANS-5-AMINO-3-[2-(5-NITRO-2-FURYL)VINYL]-1,2,4-OXADIAZOLE;SQL8506, 28754-68-9, Carcinogen: TRANS-5-AMINO-3-[2-(5-NITRO-2-FURYL)VINYL]-1,2,4-OXADIAZOLE;SQL8506, 28754-68-9, Dose [Inhibitor]: 1% IN DIET DAILY FOR 11 D BEGINNING 3 D BEFORE, DURING AND 3 D AFTER TREATMENT EACH OF 3 CARCINOGEN TREATMENTS (STUDY DU, Route [Inhibitor]: ORAL, Species: MOUSE, Strain/Sex: CD-1/FEMALE, Target Tissue: Type of Lesion: STOMACH: SQUAMOUS CARCINOMA, Dose [Carcinogen]: 1 G/KG 2/D FOR 5 D EVERY 4 WK FOR 3 COURSES OF TREATMENT) 60/137 (44%), 12/34 (35%), 20%, not calculated; (Carcinogen: URETHANE, 51-79-6, Dose [Inhibitor]: 0, 500 MG/KG IN CORN OIL AT 24 HR AND 1 HR PRIOR TO CARCINOGEN DOSE (STUDY DURATION: 4 MO), Route [Inhibitor]: GAVAGE, Species: MOUSE, Strain/Sex: BALB/MALE, FEMALE, Target Tissue: Type of Lesion: LUNG: TUMOR, Dose [Carcinogen]: 1 G/KG IN 0.9% SALINE ONCE) 100%, 63%, 37%, not significant; (Carcinogen: URETHANE, 51-79-6, Dose [Inhibitor]: 0, 500 MG/KG IN CORN OIL FOR 4 D BEGINNING 4 D POST CARCINOGEN DOSE (STUDY DURATION: 4 MO), Route [Inhibitor]: GAVAGE, Species: MOUSE, Strain/Sex: BALB/MALE, FEMALE, Target Tissue: Type of Lesion: LUNG: TUMOR, Dose [Carcinogen]: 1 G/KG IN 0.9% SALINE ONCE) 100%, 94%, 6%, not significant.
